Results reported in patent US20180303798A1 (Ares Trading S.A., priority 2012, published 2018).

How the values were obtained:
[1] = test system: HEC-1-A cell line; assay: Antioxidant activity assay (ROS by FACS); type: cell-based, human
Protocol: They were used in different concentrations (i.e. 40 nM, 80 nM, 170 nM and 340 nM, corresponding respectively to 9.4×10^−9 g/ml, 18×10^−9 g/ml, 40×10^−9 g/ml and 80×10^−9 g/ml).
(§1) HEC-1A cells were obtained by ATCC and culture following instructions of the provider.
(§2) HEC-1-A is an epithelial stabilized cell line isolated by H. Kuramoto from adenocarcinoma patient (21), which provide a valuable model to study endometrial epithelial cell in vitro (22).
Reactive Oxidative Substances (ROS) were measured by FACS as previously described by Italiano et al. (23) in two independent replicates.

[2] = test system: HEC-1-A cell line; assay: Apoptosis assay (Propidium Iodide staining and FACS, sub-G1 events); type: cell-based, human; details: 24 hours
Protocol: as §1, §2
The apoptosis (% cell death) of the endometrial cells is a physiological phenomenon generally observed at 10-20% rate during cell culture.
Apoptosis levels were assayed by Propidium Iodide staining and FACS analysis. Percentage of sub-G1 events is shown for one of two experiments performed.

[3] = test system: patients subjected to assisted fertilization; assay: Clinical study 1: multi-centre study, endometrial irrigation with melatonin in culture medium at oocyte retrieval; type: in vivo, human
Description: (§3) Said culture medium is normally used to improve cleavage, differentiation and expansion in vitro of blastocyst. The medium contains D-glucose, all the 20 essential L-amino acids, L-taurine, Gentamicin, human serum albumin, calcium lactate, calcium pantothenate; sodium chloride, sodium bicarbonate and sodium pyruvate; potassium chloride, potassium phosphate; magnesium chloride, magnesium sulfate; purified water. Further characteristics of the culture medium: • pH: 7.5-7.8 (use of bicarbonate buffer) • Osmolarity: 280-290 mOsm/kg • Endotoxins: <0.4 EU/ml • MEA: ≥80% • 2) physiological solution (Clinical Trial 2)
In the logistic regression, OR corresponds to the antilogarithm on a natural basis of the regression coefficient β associated with each covariate in the regression model.
The value thus calculated expresses therefore the advantage obtained through each procedure, irrespective of the other conditions.
The two-tailed confidence intervals at 95% (IF95%) of the OR have been calculated through the formula of […]
For the latter, the CI (confidence interval or trust interval) has been calculated through statistical analysis (IMPRUN. TXT) of linear regression with more variables of 95%.

[4] = test system: patients subjected to assisted reproduction; assay: Clinical study 2: single centre study, endometrial washing with melatonin in sterile physiological solution; type: in vivo, human
Description: as §3
Restricted criteria of inclusion have been used for selecting the patient population involved in the studies: • 3) age ≥20 and <44 years • 4) body mass index (BMI) ≥20 and ≤28 kg/m^2 • 5) Basal FSH≤19 UI/l • 6) Male and female factors
The second clinical study with a single prospective centre involved 64 patients in the group of control and 92 patients in the group of study.
In the case of the physiological solution, the catheter can be pre-filled with physiological solution supplemented with melatonin.
The catheter has been introduced in the internal uterine orifice with the same steps through which the operator carries out the conventional embryo-transfer (ET).
The single centre study involved 64 patients in the group of control and 92 patients in the group of study.
The primary endpoint of the study is the rate of clinical pregnancies (fetal heart) due to embryonic transfer (ET); the secondary endpoint is the rate of ongoing pregnancies and aborts.

[5] = test system: endometrial tissue; assay: In vitro culture of endometrium with melatonin, visualization of pinopodes by electron microscopy (SEM); type: cell-based, human; details: co-culture from 3 to 5 days of endometrial tissue with permanent addition of melatonin
Protocol: The melatonin and the culture medium used are the same as those used for the in vivo study.
It has been used a field emission at high resolution electron microscope, FE HITACHI S 4000 model, operating at […].
Soon after retrieval from the patient, small pieces of endometrial tissue of about 1 mm in size have been placed in a fixing solution composed of paraformaldehyde 1% and glutaraldehyde 0.5% in buffer cacodylate 0.1 M pH 7.2 for 3 hours.
After this fixing the pieces are washed in PBS 20 min×3 times (1 hour total) and then the post fixing is carried out in a solution of osmium tetroxide 2% and potassium ferrocyanide 2.5%.
The preparation is kept in the dark for 3 hours to be then accurately washed rotating in PBS, with 4 replacements of 20 min each.
It follows dehydration of the samples of tissue with acetone in ascending succession with 3 replacements in 1 hour for each gradation 50%-70%-80%-90%-95% and 2 replacements with pure acetone. […]
The samples are fixed through a special electrically conductive double sided adhesive and for their arrangement two very thin needles are used and the preparation is ready to be observed with scanning electron microscope (SEM). […]

[6] = test system: Ishikawa cells; details: effect produced through MT2 receptors; reference (7); cited from earlier work
[7] = 170 nM (40 ng/ml) compound, H2O2 200 mcg/ml
[8] = number of patients out of 92 ET

SMILES	protection of cell line from oxidation (ROS, FACS) [1, 7]	anti-oxidative effect (ROS, FACS) ([1]; dose increased up to 340 nM, H2O2 200 mcg/ml, data not shown)	effect on apoptosis (% cell death, sub-G1) ([2]; up to concentration of 170 nM)	effect on apoptosis (% cell death, sub-G1) ([2]; at 170 and 340 nM)	number of pregnancies with respect to the other two groups ([3]; irrigation or washing with melatonin vs physiological solution and no irrigation)	result of endometrial irrigation at lower concentration ([3]; preceding studies with one third and the half of the final concentration 10×10^−9 g/ml, not shown data)	rate of clinical pregnancies and ongoing pregnancies vs the group of control ([4]; endometrial washing with solutions containing melatonin, infertile female population)	Aborts ([4]; group of study)	BHCG Positive (on total of ET) ([4]; group of study, 92 ET)	rate of ongoing pregnancies (Ongoing Pregnancy/ET) ([4]; group of study, 92 ET)	rate of clinical pregnancies (Clinical Pregnancy/ET) ([4]; group of study, 92 ET, melatonin 10×10^−9 g/ml in physiological solution)	BHCG Positive (on total of ET), No [4, 8]	Clinical Pregnancy/ET, No [4, 8]	Ongoing Pregnancy/ET, No [4, 8]	Aborts, No ([4]; number of patients, group of study)	pinopodes (SEM) with respect to the culture of control [5]	anti-oxidative effect (ROS, FACS) ([1]; 170 nM (40 ng/ml) compound, H2O2 20 mcg/ml)	effect on apoptosis (% cell death, sub-G1) ([2]; all the concentrations tested (80, 170, 340 nM))	proliferation of atypical endometrial cells (Ishikawa) [6]
COc1cc2c(CCNC(C)=O)c[nH]c2cc1O [6-hydroxy-melatonin, 6-hydroxymelatonin]	does not	anti-oxidative effect of this analogue is reached	no effect on apoptosis	–	–	–	–	–	–	–	–	–	–	–	–	–	–	–	–
COc1ccc2cccc(CCNC(C)=O)c2c1 [agomelatine]	continued to protect cell line from oxidation	–	–	protective effect	–	–	–	–	–	–	–	–	–	–	–	–	–	–	–
COc1ccc2[nH]cc(CCNC(C)=O)c2c1 [melatonin, N-acetyl-5-methoxytryptamine]	continued to protect cell line from oxidation	–	–	–	double the number of pregnancies	without giving the same results	double	11.8%	44.6%	32.6%	37%	41	34	30	4	unquestionable increase of pinopodes	same anti-oxidative effect	protective effect on apoptosis	inhibits proliferation
